We go through 2 compounds from patent publication US20040058425A1, “Crystal structure” (priority 2001, published 2004).

Assay [1] concerns PDHK. Briefly: Assay to measure whether compounds inhibit PDHK activity (kinase reaction with porcine PDH and MgATP, then residual PDH activity by NAD reduction at 340 nm). The conditions noted are these: result in words. It is filed as biochemical. Here is the method:
Compounds were assessed for inhibition of PDHK in an assay adapted from Espinal, J. et al (1995) Drug Development Res. 35, 130-136. In the first part of the assay, compounds were incubated with porcine PDH (Sigma P-7032) and MgATP, and the reaction was stopped after defined intervals. In the second part of the assay, the residual PDH activity was measured by monitoring the rate of reduction of NAD at 340 nm.
The assay was performed in flat-bottom 96-well microtitre plates, using a final volume of 50 μl for the first part of the assay (kinase reaction), and 250 μl for the PDH reaction. At first, 10 μl test compound in a suitable diluent, 20 μl kinase buffer (20 mM potassium phosphate, pH7.0, 4 mM MgCl2, 4 mM dithiothreitol) and 10 μl PDH (Sigma, P-7032, diluted with water to a final concentration of 1.83 mg/ml) were mixed and incubated for 10 min; then 10 μl ATP solution (125 μM in kinase buffer) was added to start the reaction.
The incubations were done at 30° C. The kinase reaction was terminated after defined intervals (usually 0, 10, 20, 30, 60, and 90 min) by initiating the PDH reaction. […] Kinetic readings were then taken at 340 nm conducted at 12 sec intervals for 20 min with shaking for 1 sec before each reading was taken, in a SpectraMax plate reader. […]

Assay [2] has as its system PDHK. As to the kind of experiment: Kinase activity of PDHK using a PDHK specific substrate peptide. Format: biochemical. The conditions noted are these: data not shown.

“N-{4-[(ethylanilino)sulfonyl]-2-methylphenyl}-3,3,3-trifluoro-2-hydroxy-2-methylpropanamide [Compound 2]”: in the assay on PDHK [1], the “ATP dependent inhibition of the PDH complex” value is given as “prevent ATP dependent inhibition of the PDH complex”. Also, in the assay on PDHK [2], the “inhibition of the kinase activity of PDHK” value is given as “do not inhibit the kinase activity of PDHK”.

Regarding `CC1CN(C(=O)C(C)(O)C(F)(F)F)C(C)CN1C(=O)c1ccc(C#N)cc1` (stereo not shown) [Compound 1], the “ATP dependent inhibition of the PDH complex” value in the assay on PDHK [1] is given as “prevent ATP dependent inhibition of the PDH complex”. In addition, the “inhibition of the kinase activity of PDHK” value with PDHK [2] is on record as “do not inhibit the kinase activity of PDHK”.
